Ends that are not written are not given here.
Tests used:
[1] = tested on: HEK 293T cells; type: cell-based, human; conditions: ratio of IC50 to GM
Procedure: (§1) The MTT (3-[4,5 dimethylthiozol-2-yl]-2,5-diphenylterazoliumbromide) dye was selected to analyze the cytotoxicity of peptides against the murine macrophage cell RAW 264.7 (National Collection of Authenticated Cell Cultures, Shanghai, China), human embryonic kidneys (HK293T), and the porcine intestinal epithelial cells (IPEC-J2) as in our previously study ([Li et al., 2020]). In short, the cells (10^4 cells/well) were seeded into 96-well plates and were cultivated overnight. Then the peptides with different final concentration (2μM, 4μM, 8μM, 16μM, 32μM, 64μM, and 128μM) were introduced into the plate and challenged with cells for 24h. After overnight incubation, the 50μl MTT (0.5mg/ml) was added into the cell cultures for 4h. Then the plate was centrifuged to discard the supernatants and obtain the formazan crystals. The DMSO (dimethyl sulfoxide) was employed as a solvent to dissolve the formazan crystals on the bottom of the plate and the optical density was read at 492nm with a microplate reader.

[2] = tested on: IPEC-J2 cells; type: cell-based, porcine; conditions: IPEC-J2; ratio of IC50 to GM
Procedure: as §1

[3] = tested on: S.aureus 29213; type: cell-based, Staphylococcus aureus ATCC 29213; conditions: 29213
Text: (§2) The tested strains were kindly provided by the laboratory of Veterinary Microbiology and Immunology, the College of Veterinary Medicine, Northeast Agricultural University (gram-negative bacteria, Salmonella enterica serovar typhimurium C77-31, Salmonella typhimurium ATCC 14028, Escherichia coli ATCC 25922, Pseudomonas aeruginosa ATCC 27853 and gram-positive bacteria, Staphylococcus aureus ATCC 29213, Staphylococcus aureus ATCC 43300, Staphylococcus epidermidis ATCC 12228, Staphylococcus aureus ATCC 25923).
(§3) The famous microtiter dilution, National Committee for Clinical Laboratory Standards, was adopted to measure the antimicrobial ability of the engineering peptides ([Chou et al., 2016]). In brief, the 50μl with serial dilution was incubated with the same volume bacteria (1×10^5CFU/ml in midi-logarithmic phase) in a 96-well plate 18–24h at 37°C. The positive control was the bacteria treated with culture medium and the negative control was merely culture medium. The MICs (minimum inhibitory concentrations) were defined as the lowest concentration of peptides that prevented the production of visible turbidity ([Tossi et al., 2000]).

[4] = tested on: RAW 264.7 cells; type: cell-based, murine; conditions: RAW264.7; ratio of IC50 to GM
Procedure: as §1

[5] = tested on: P.aeruginosa 27853; type: cell-based, Pseudomonas aeruginosa ATCC 27853; conditions: 27853
Text: as §2, §3

[6] = tested on: S.epidermidis 12228; type: cell-based, Staphylococcus epidermidis ATCC 12228
Text: as §2

[7] = tested on: hRBC, IPEC-J2, HEK 293T, RAW264.7
Procedure: Besides, the therapeutic index of peptide in the mammalian eukaryotic cell (RAW 264.7, HEK 293T, and IPEC J2) was also calculated to study the biocompatibility of peptides.

[8] = tested on: panel of gram-negative and gram-positive bacteria; conditions: over the eight strains of Table 2
Procedure: as §3

[9] = tested on: E. coli 25922; type: cell-based, Escherichia coli ATCC 25922
Text: as §2

[10] = tested on: S.typhimurium 14028; type: cell-based, Salmonella typhimurium ATCC 14028
Text: as §2

[11] = tested on: S.typhimurium 7731; type: cell-based, Salmonella enterica serovar typhimurium C77-31
Text: as §2

[12] = tested on: MRSA 43300; type: cell-based, Staphylococcus aureus ATCC 43300; conditions: microtiter dilution, 1×10^5CFU/ml, 18–24h at 37°C, visible turbidity
Text: as §2, §3

[13] = tested on: human red blood cells (hRBCs); test: Hemolytic activity; type: cell-based
Text: The hemolytic activity of peptides was reflected by the releasing amount of hemoglobin from erythrocytes lysis induced by peptides ([Dong et al., 2014a]). The informed consent was obtained from the volunteers (3 healthy 25-year-old male volunteers) before the experiment. In brief, the human red blood cells (hRBCs), donated by volunteer, were collected, washed, and resuspended in PBS at pH 7.2. The peptides were serially diluted in PBS at different concentrations in a 96-well cell cultures plate and incubated with 50μl hRBCs for 1h at 37°C. The 0.1% Trition X-100 was selected as the treatment of positive control and the negative control was the hRBCs treated with PBS. After 1h incubation, the supernatant, obtained by centrifuging the plate 1,000g for 5min, was transferred to a brand-new plate for absorbance detection at 570nm. The releasing amount of hemoglobin was converted to the percent hemolysis against to 0.1% Triton X-100 treatment. The lowest concentration caused 5% hemolysis of hRBCs and was defined as the lowest hemolytic concentration of antimicrobial peptide.

[14] = tested on: P. aeruginosa 27853; type: cell-based, Pseudomonas aeruginosa ATCC 27853; conditions: 27853
Procedure: The famous microtiter dilution, National Committee for Clinical Laboratory Standards, was adopted to measure the antimicrobial ability of the engineering peptides ([Chou et al., 2016]). In brief, the 50μl with serial dilution was incubated with the same volume bacteria (1×10^5CFU/ml in midi-logarithmic phase) in a 96-well plate 18–24h at 37°C. The positive control was the bacteria treated with culture medium and the negative control was merely culture medium. […] The antimicrobial performance of peptides against P. aeruginosa 27853 cells was further studied under the complicated physiological conditions ([Lyu et al., 2016]). […] The serum was also taken into the consideration for the adverse impact on the antimicrobial effect of peptides.

[15] = tested on: S.aureus 25923; type: cell-based, Staphylococcus aureus ATCC 25923; conditions: 25923
Text: as §2, §3

[16] = tested on: normal skin tissue; test: Skin toxicity, TUNEL assay; conditions: subcutaneous injection, 24h; VW5 5mg/kg; DMSO 100μl 100%
Procedure: The potential toxicity of peptides to normal skin tissues was further tested by TUNEL assay ([Huang et al., 2009]). […] The 100μl 100% DMSO treatment served as a positive control, which was well-known for its toxicity to induce skin necrosis. Then, the skin samples were harvested and were subjected to TUNEL assay and counterstain with 4,6-diamidino-2-phenylindole (DAPI).

Molecule | Therapeutic index (TI) [1] | Therapeutic index (TI) [2] | MIC [3] | Therapeutic index (TI) [4] | MIC [5] | MIC [6] | GMTI, geometric mean of TI of various cell lines [7] | GMMIC, geometric mean of the MICs [8] | MIC [9] | MIC [10] | MIC [11] | MIC [12] | HC5 (MHC), lowest concentration that caused 5% hemolysis ([13]; hRBC in PBS pH 7.2, 1h at 37°C, absorbance 570nm, vs 0.1% Triton X-100, highest test concentration 128μM) | Therapeutic index (TI) ([13]; hRBC, ratio of MHC to GM) | MIC [14] | MIC [15] | apoptotic cells in epidermal layer (TUNEL) [16]
VKKLVKKAVKKLVKKA-NH2 [VL1] | 75.40 | 58.65 | >64 µM | 68.71 | >64 µM | >64 µM | >23.48 | 128.00 µM | >64 µM | >64 µM | >64 µM | >64 µM | >128 µM | >1.00 | >64 µM | >64 µM | –
C[S+](C)[O-] [DMSO, dimethyl sulfoxide] | – | – | – | – | – | – | – | – | – | – | – | – | – | – | – | – | heavy cell apoptosis

Reference: publication PMC8548882, “The Trp-rich Antimicrobial Amphiphiles With Intramolecular Aromatic Interactions for the Treatment of Bacterial Infection” (Frontiers in Microbiology, 2021)
